Measurements reported in patent US11135252B2, “Probiotic therapies for developmental disorders and other neurological disorders” (Baylor College of Medicine, priority 2016, dated 2021).
Entries after “also recorded” stand apart in the source; their conditions may differ.

Tests used:
MHFD offspring = experiment: Reciprocal social interaction test in MHFD offspring; format: in vivo, mice
Description: Animal care and experimental procedures were approved by Baylor College of Medicine's Institutional Animal Care and Use Committee in accordance with all guidelines set forth by the U.S. National Institutes of Health. Reciprocal Social Interaction. Mice were placed in a 25×25×25 cm Plexiglass arena, to which they had not been previously habituated, with either a familiar (cage-mate) or stranger age- and sex-matched conspecific. In all experiments, paired mice were matched for maternal diet, colonization source, and/or treatment. We recorded the time a pair of mice engaged in social interaction (close following, touching, nose-to-nose sniffing, nose-to-anus sniffing, and/or crawling over/under each other). The human observer was blind to maternal diet and/or treatment group. Social behavior was analyzed with AnyMaze automated software. Lactobacillus reuteri MM4-1A (ATCC-PTA-6475) and Lactobacillus johnsonii (ATCC 33200) were cultured anaerobically in MRS broth in a 90% N2, 5% CO2, 5% H2 environment. L. reuteri was heat-killed by keeping the bacteria at 80° C. for 20 minutes (Wang et al., 2010). Bacterial viability was assessed by plating and the efficacy of the heat-kill procedure was confirmed by the absence of colony growth following plating. Cultures were centrifuged, washed, and resuspended in anaerobic solution (PBS) and frozen at −80° C. until use. PBS, live or heat-killed L. reuteri were added to the drinking water, which was changed daily to minimize dosage variability. Whereas the experimental group received live bacteria, one control group received identically prepared cultures of heat-killed bacteria. A second group of control mice received water treated with PBS alone. Live and heat-killed L. reuteri were supplied at a dosage of 1×10^8 organisms/mouse/day continuously in drinking water. Mice consumed the treated water ad libitum over the treatment period. The treated drinking water for each group was replaced daily two hours prior to the onset of the dark cycle to minimize variation in microbial exposure. Behavioral assays were initiated after 4-weeks of L. reuteri or control treatment. The protocol of the L. johnsonii preparation and administration matched the L. reuteri protocol. Fecal samples for sequencing and tissue used in the immunofluorescence studies were collected at the end of the treatment. Oxytocin was obtained from Tocris Bioscience (product 1910) and solubilized in 10% dimethyl sulfoxide (DMSO) in PBS. 10% DMSO in PBS was used as the vehicle control. Mice received oxytocin intranasally (at approximately 200 μg/kg) thirty minutes prior to behavior. 1.25 μl of oxytocin or vehicle solution was injected into each nostril from P10 pipette. Oxytocin dose was selected according to dosages reported to rescue social behavior in genetic models phenotypically expressing ASD-like behaviors (Penagarikano et al., 2015).

VTA DA neurons = experiment: Social interaction-induced LTP (AMPAR/NMDAR ratio) in VTA DA neurons of MHFD offspring; format: in vivo, mice; settings: for stranger interaction-evoked LTP in the VTA (AMPAR/NMDAR ratio): bacteria in drinking water, 24 hours after 10 min reciprocal interaction
Description: Brain regions responding to naturally rewarding stimuli, including the ventral tegmental area (VTA) and the nucleus accumbens (NAc), are crucially involved in social behaviors (Dolen et al., 2013; Gunaydin et al., 2014; Huang and Hessler, 2008). In addition, oxytocin-expressing neurons in the PVN project to the VTA (Melis et al., 2007). Oxytocin activates VTA neurons in both mice and humans, influencing the processing of socially relevant cues (Gregory et al., 2015; Groppe et al., 2013; Tang et al., 2014) and oxytocin receptor blockade in the VTA prevents social attachment in rodents (Pedersen et al., 1994). Given that social stimulation can be particularly rewarding and triggers synaptic potentiation in VTA DA neurons of birds (Huang and Hessler, 2008), it was considered whether direct social interaction evokes long-term potentiation (LTP) of synaptic inputs to VTA DA neurons (FIGS. 20A-20C). To this end, AMPAR/NMDAR ratios were recorded of glutamatergic excitatory postsynaptic currents (EPSCs) in MRD and MHFD offspring 24 hours following a 10 min reciprocal interaction with either a stranger or a familiar mouse (FIG. 5A). In control MRD mice, social interaction with a stranger, but not a familiar mouse, triggered LTP in VTA DA neurons, as determined by an increase in AMPAR/NMDAR ratios (FIGS. 5B and 5D).
Recordings were performed as previously described (Ungless et al., 2001; Zhu et al., 2011) and the investigators were kept blind to treatment conditions. Briefly, mice were anesthetized with a mixture of ketamine (100 mg/kg), xylazine (10 mg/kg) and acepromazine (3 mg/kg). Horizontal slices (225-300 μm thick) containing the VTA were cut from the brains of C57BL/6J mice. Mice were transcardially perfused with an ice-cold, oxygenated solution containing (in mM) NaCl, 87; NaHCO3, 25; KCl, 2.5; NaH2PO4, 1.25; MgCl2, 7; CaCl2, 0.5; dextrose, 25; sucrose, 75. […] Data were obtained with a MultiClamp 700B amplifier, digitized at 20 kHz with a Digidata 1440A, recorded by Clampex 10 and analyzed with Clampfit 10 software (Molecular Devices). […] After establishing a gigaohm seal (>2 GΩ) and recording stable spontaneous firing in cell-attached, voltage clamp mode (−70 mV holding potential), cell phenotype was determined by measuring the width of the action potential and the presence of an Ih current. AMPAR/NMDAR ratios were calculated as previously described (Ungless et al., 2001). […]

## Lactobacillus reuteri MM4-1A (ATCC-PTA-6475) [L. reuteri]
MHFD offspring; bacteria in drinking water
  reciprocal social interaction: rescued
MHFD offspring; bacteria in drinking water, listed as live L. reuteri
  reciprocal social interaction: restored reciprocal social interaction
VTA DA neurons
  stranger interaction-evoked LTP in the VTA (AMPAR/NMDAR ratio): rescued stranger interaction-induced LTP
VTA DA neurons; listed as live L. reuteri
  stranger interaction-evoked LTP in the VTA (AMPAR/NMDAR ratio): restored stranger interaction-evoked LTP

## CC[C@H](C)[C@@H]1NC(=O)[C@H](Cc2ccc(O)cc2)NC(=O)[C@@H](N)CSSC[C@@H](C(=O)N2CCC[C@H]2C(=O)N[C@@H](CC(C)C)C(=O)NCC(N)=O)NC(=O)[C@H](CC(N)=O)NC(=O)[C@H](CCC(N)=O)NC1=O [oxytocin]
MHFD offspring; intranasal oxytocin
  contact duration in reciprocal social interaction test: improved MHFD offspring contact duration
  interaction frequency in reciprocal social interaction test: improved
MHFD offspring; intranasal oxytocin approximately 200 μg/kg, 30 min prior
  reciprocal social interaction: improved reciprocal social interaction
MHFD offspring; intranasal oxytocin approximately 200 μg/kg, 30 min prior, listed as Oxytocin
  reciprocal social interaction: restored reciprocal social interaction
VTA DA neurons; intranasal oxytocin alone, without social interaction
  social interaction-induced LTP in the VTA: failed to rescue
VTA DA neurons; intranasal oxytocin approximately 200 μg/kg combined with stranger social interaction
  social interaction-induced LTP in the VTA: restored LTP; also recorded: rescued LTP
